Assays:
Format in all cases: cell-based, Acer pseudoplatanus L.
papain (EC 3.4.22.2) = test: Induction of a thiol-protease (papain) inhibitor in elicited cells; conditions: 50 nM elicitor; for Papain inhibitor potential, early reaction: after 30 minutes; for Papain inhibitor potential, late reaction: after 42 hours
Experimental: Vegetable Material: Acer pseudoplatanus L. Cells in Suspension
Test: 2.10^6 cells of Acer pseudoplatanus L. were elicited by 50 nM of 2′-fucosyl lactose (compound A) or by 50 nM of methyl α-L-Fuc (1→2)β-D-Gal (1→2)β-D-Xyl trisaccharide (compound B) (synthesized according to Lopez et al., 1994) for 30 minutes or for 42 hours. Inhibitors of protease (IP) were prepared according to the protocol of Walker-Simmons (1977) starting from elicited or non-elicited cells. It was verified that the viability of the cells was maintained at more than 85% for the whole duration of the experiment.
Papain activity assay: the reaction medium contains an aliquot of IP extract (equivalent to 1 or 2 μg of proteins) in sodium phosphate citrate buffer (0.1M) pH 6 enriched with cysteine-HCl (5 mM), papain (EC 3.4.22.2) (0.48 units), p-nitroanilide N-α-benzoyl-D-L-arginine (BAPNA) (0.27 mM). The activity assay is based on the absorbance measurement at 410 nm. The reaction rate is given by ΔA410 min^−1.
Evaluation of the experimental data: for a given sample, the activity of an IP inhibitor isolated from this sample is estimated by developing the protease kinetics (recording at 410 nm for IO minutes in the presence or not in the presence of a variable quantity of inhibitor). The experimental conditions adopted (incubation time, substrate, enzyme and IP extract concentrations) are those which lead to linear and reproducible kinetics. The initial reaction rate is the slope α(A410 minutes^−1) of a curve A410=f(t). For a given sample, at least three curves are plotted and the initial rate is deduced by linear regression. The protease activity modulation capacity is expressed as a % of the control activity (protease activity without IP inhibitor).
The elicitation response is evaluated according to the papain inhibition measured in the presence of a protease inhibitor prepared from cells elicited by 2′ fucosyl lactose (2A) or by methyl α-L-Fuc (12) β-D-Gal (12) β-D-Xyl trisaccharide (2B); the results are expressed as a % of the control activity (papain activity in the non-elicited cells measured without inhibitor).

[1] = tested on: β-D-xylosidase (EC 3.2.1.37); test: Induction of a β-D-xylosidase response in elicited cells; conditions: 50 nM elicitor; for β-D-xylosidase response R (activity in elicited cells/non-elicited control cells), maximal: 15 minutes; for β-D-xylosidase response: 42 hours; for β-D-xylosidase response R: after 1 hour
Experimental: (§1) Vegetable material: Acer pseudoplatanus L Cells in Suspension
(§2) Test: 2.10^6 Acer pseudoplatanus L. cells were elicited under circular stirring (80 rpm), in 25 ml of culture medium (without 2,4-D) by 50 nM of 2′-fucosyl lactose (compound A) or 50 nM of methyl α-L-Fuc (1→2) β-D-Gal (1→2) β-D-Xyl trisaccharide (compound B)(synthesized according to Lopez et al., 1994) or for a variable time (0 to 42 hours) in the presence or not in the presence of an effector: cycloheximide (1 μM), okadaic acid (5 nM), staurosporine (500 nM), or boroglycine (500 nM). The elicitation experiment is stopped by putting the cells in ice. The cells recovered after decantation and taken up in approximately 1 ml of elicitation buffer are the subject of a specific protein extraction.
(§3) D-glycosylhydrolase extraction. The enzyme extracts are prepared from elicited or non-elicited cells. The cells are homogenized at 0° C. in Tris-HCl buffer (50 mM pH 7.2) containing 1 M of NaCl with a Vibracell™ Bioblock sonicator, maximum power, for 3 times 1 minute. The homogenates are centrifuged at 4° C. (12000 g, 15 minutes) then dialysed and concentrated on Ultrafree™ Millipore ultrafiltration units (cut-off threshold 10 kDa). The retentates, taken up in distilled water, are crude extracts.
β-D-xylosidase activity assay according to the protocol of Lee and Zeikus (1993) after incubation of the enzyme extracts (2 to 4 μg of proteins) in sodium acetate buffer (0.1 M, pH 5), at 40° C. for a variable time (90 to 210 minutes), in the presence of p-nitrophenyl β-D-xylopyranoside (p-NPX) substrate (7.3 μM). After addition of Na2CO3 (0.1 M), the products released are assayed by spectrophotometry at 410 nm.
(§4) Evaluation of the experimental data. At least 2 kinetics were carried out per sample, and per set of experiments. The reaction rate (ΔA410 minutes^−1 for example) is obtained by linear regression from 4 kinetic curves. The results are expressed by the ratio R (enzymatic activity in elicited cells/enzymatic activity in non-elicited control cells).

[2] = tested on: 1,4 β-D-glucanase (EC 3.2.1.4); test: Induction of a 1,4 β-D-glucanase response in elicited cells; conditions: 50 nM elicitor; for 1,4 β-D-glucanase response R: 42 hours; for 1,4 β-D-glucanase early response R: after 20 minutes
Experimental: as §1, §2, §3
(§5) 1,4 β-D-glucanase activity assay. This is based on colorimetric assay (ferricyanide test of Kidby and Davidson (1973) of the cellopentaose substrate reducing units released during the hydrolysis. The reaction medium contains the enzyme extract (1 μg of proteins), reduced cellopentaose (4 μM) in 100 μl of sodium acetate buffer (0.1 M), pH 5.0); the enzymatic reaction at 40° C. develops over a variable time (1 to 3 hours).
as §4

[3] = tested on: 1,3 β-D-glucanase (EC 3.2.1.39); test: Induction of a 1,3 β-D-glucanase response in elicited cells; conditions: 50 nM elicitor; for 1,3 β-D-glucanase response R: 42 hours; for 1,3 β-D-glucanase early response R: after 20 minutes
Experimental: as §1, §2, §3
as §5, with “1,3” for “1,4”, “the” for “the cellopentaose”, “units (laminarin or laminarin hexamer)” for “units”, “proteins), the substrate (5 μM of” for “proteins),”, “laminarin hexamer)” for “cellopentaose (4 μM)”
as §4

Row | SMILES | Papain inhibitor potential, early reaction (papain (EC 3.4.22.2)) | Papain inhibitor potential, late reaction (papain (EC 3.4.22.2)) | β-D-xylosidase response R (activity in elicited cells/non-elicited control cells), maximal [1] | β-D-xylosidase response [1] | β-D-xylosidase response R [1] | 1,4 β-D-glucanase response R [2] | 1,4 β-D-glucanase early response R [2] | 1,3 β-D-glucanase response R [3] | 1,3 β-D-glucanase early response R [3]
1 | CO[C@@H]1OC[C@@H](O)[C@H](O)[C@H]1O[C@@H]1O[C@H](CO)[C@H](O)[C@H](O)[C@H]1O[C@@H]1O[C@@H](C)[C@@H](O)[C@@H](O)[C@@H]1O [compound B, methyl α-L-Fuc (1→2)β-D-Gal (1→2)β-D-Xyl] | same papain inhibitor potential | lower intensity | 5 | no significant response | 1 | ~4 | ~5 | ~12 | ~3
2 | C[C@@H]1O[C@@H](O[C@H]2[C@H](O[C@H]3[C@H](O)[C@@H](O)[C@H](O)O[C@@H]3CO)O[C@H](CO)[C@H](O)[C@@H]2O)[C@@H](O)[C@H](O)[C@@H]1O [compound A, α-L-Fuc(1→2)β-D-Gal(1→4)β-D-Glc] | same papain inhibitor potential | lower intensity | 9 | no significant response | 1 | ~4 | ~5 | ~12 | ~3

— US20040023924A1, “Use of xyloglucan polymers and oligomers, and derivative compounds, as phytosanitary products and biofertilizers” (priority 2000, published 2004)
